Measurements taken from patent publication US12370239B2, “Microvascular blood flow decreasing agent and use thereof” (priority 2016, dated 2025).
Entries after “also recorded” stand apart in the source; their conditions may differ.

Tests used:
Assay type in all cases: in vivo, human
tumor = test: Endovascular therapy case reports, tumor response (Example 3); design: key: CR indicates an elimination of tumor from the imaging; PR indicates >50% reduction of tumor diameter; MR indicates >30% reduction of tumor diameter; NC indicates <30% reduction of tumor diameter; PD indicates an increase in tumor diameter
Protocol: Short-term tumor-reducing effect in 1 month after the administration was assessed by MRI or CT imaging. In the table, CR indicates an elimination of tumor from the imaging, PR indicates >50% reduction of tumor diameter, MR indicates >30% reduction of tumor diameter, NC indicates <30% reduction of tumor diameter, and PD indicates an increase in tumor diameter.
To Patient A who had suffered from breast cancer, an endovascular therapy was carried out using nivolumab 10 mg, pertuzumab 60 mg, bortezomib 0.7 mg, thrombomodulin 3200 U and maxacalcitol 10 μg. This patient was marked as CR by such treatment.
To Patient B who had suffered from malignant fibrous histiocytoma in right femur, an endovascular therapy was carried out using 20 mg of nivolumab. This patient was marked as CR after 3 treatments using 20 mg of nivolumab per each administration.
To Patience C who had suffered from hepatitis C and had developed liver cancer, an endovascular therapy was carried out using nivolumab 10 mg, bortezomib 0.7 mg, etanercept 25 mg, maxacalcitol 10 μg and imipenem/cilastatin sodium 500 mg/body for each administration. This patient was marked as CR after two treatments.
(§1) This patient was subjected to an endovascular therapy using nivolumab 10 mg, bortezomib 0.7 mg, etanercept 25 mg, maxacalcitol 10 μg, and thrombomodulin 3200 U, and was marked as CR by such treatment. […] FIG. 4 is a graph showing the transition of % IS of BCR-ABL mRNA before and after the endovascular therapy for the […] in this patient.

BCR-ABL mRNA = test: % IS of BCR-ABL mRNA, marker for chronic myeloid leukemia, before and after endovascular therapy; settings: Patient D, after endovascular therapy for bladder cancer (time point 2 to 3, FIG. 4)
Protocol: as §1

microvasculature = test: Contrast imaging of microvascular blood flow / vessel density after infusion
Protocol: When it is used for decreasing microvascular blood flow according to the present invention, the dose of the immune checkpoint inhibitor to be administered will vary depending on the type of the immune checkpoint inhibitor to be administered, though a skilled person can calculate an appropriate amount.
It was shown that each of the immune checkpoint inhibitors causes a clear change in tumor hemodynamics by single-agent administration 2 to 3 minutes after the infusion from the tumor vessel. Moreover, an immediate relief from cancerous pain by administration is also confirmed. Adding to these, their original effect of inhibiting immune checkpoint can also be expected, providing a prospective of relatively longer lasting effect by administration of single agent.
In all cases, fat suppression T2-weighted MRI image was obtained before treatment to select target vessels. 3Fr intraarterial-indwelling sheath (Medikit Co., Ltd.) was inserted from femoral artery by Seldinger method, allowed to reach the target vessel using 3Fr angiography catheter (Medikit Co., Ltd.), Radifocus 0.032″ external diameter guide wire (TERUMO Corp.), and microcatheter ASAHI Tellus C3, ASAHI Meister 0.016″ micro guide wire (ASAHI INTECC Co., Ltd.) as appropriate, then abnormal vascular networks are identified by contrast imaging. […]

[1] = test system: blood vessels at a site having prolonged pain; test: Endovascular therapy to blood vessels at a site having prolonged pain, symptom improvement and side effects (Example 4); design: key to Effect (improvement in symptoms): an exacerbation in symptom=0; no change=1; an improvement in symptom and easiness in dairy living=2; almost satisfactory improvement=3; Side effect: scale not given here
Protocol: To 14 subject cases indicated in the table below who had blood vessels at a site having prolonged pain, endovascular therapy was carried out as follows, using pembrolizumab.
In all cases, fat suppression T2-weighted MRI image was obtained before treatment to select target vessels. 3Fr intraarterial-indwelling sheath (Medikit Co., Ltd.) was inserted from femoral artery by Seldinger method, allowed to reach the target vessel using 3Fr angiography catheter (Medikit Co., Ltd.), Radifocus 0.032″ external diameter guide wire (TERUMO Corp.), and microcatheter ASAHI Tellus C3, ASAHI Meister 0.016″ micro guide wire (ASAHI INTECC Co., Ltd.) as appropriate, then abnormal vascular networks are identified by contrast imaging.
Subsequently, as shown in the table, pembrolizumab 1 to 4 mg/body (mean=1.86 mg/body, median=2 mg/body) was mixed with the combined drugs in 100 ml of physiological saline, stirred with a stirrer while being infused into the target vessel in an amount such that a sufficient decrease in abnormal vessel density was confirmed.
The level of post-treatment improvement in symptoms was assessed after 3 weeks or longer. A stepwise assessment was done as follows: an exacerbation in symptom=0, no change=1, an improvement in symptom and easiness in dairy living=2, almost satisfactory improvement=3.

nivolumab
tumor response (tumor; Patient A, breast cancer, nivolumab 10 mg with pertuzumab 60 mg, bortezomib 0.7 mg, thrombomodulin 3200 U, maxacalcitol 10 μg): CR | tumor response (tumor; Patient B, malignant fibrous histiocytoma in right femur (metastasis to lung), after 3 treatments, 20 mg of nivolumab per administration): CR | tumor response (tumor; Patient C, liver cancer (hepatitis C), stage II, after two treatments, nivolumab 10 mg with bortezomib 0.7 mg, etanercept 25 mg, maxacalcitol 10 μg, imipenem/cilastatin sodium 500 mg/body): CR | tumor response (tumor; Patient D, bladder cancer (chronic myeloid leukemia), stage II, nivolumab 10 mg with bortezomib 0.7 mg, etanercept 25 mg, maxacalcitol 10 μg, thrombomodulin 3200 U): CR | % IS of BCR-ABL mRNA (BCR-ABL mRNA): decreased

ipilimumab
tumor vessel density-decreasing effect (microvasculature; by itself, injection into nutrient artery): strong tumor vessel density-decreasing effect

pembrolizumab
Side effect ([1]; Case 1, Left gonarthritis, P 1 mg/body + imp/cs 500, bv 50, bort 0.35, maxa 10): 0 | Effect (improvement in symptoms) ([1]; Case 1, Left gonarthritis, P 1 mg/body + imp/cs 500, bv 50, bort 0.35, maxa 10, after 3 weeks or longer): 1 | Effect (improvement in symptoms) ([1]; Case 2, Elbow joint RA 5 y, P 4 mg/body + eta 25, bort 0.35, imp/cs 500, after 3 weeks or longer): 3 | Side effect ([1]; Case 2, Elbow joint RA, P 4 mg/body + eta 25, bort 0.35, imp/cs 500): 0 | Effect (improvement in symptoms) ([1]; Case 3, Hip osteoarthritis 5 y, P 3 mg/body + eta 25, bort 0.35, maxa 10, imp/cs 501, after 3 weeks or longer): 3 | Side effect ([1]; Case 3, Hip osteoarthritis, P 3 mg/body + eta 25, bort 0.35, maxa 10, imp/cs 501): 0 | Side effect ([1]; Case 4, Left shoulder pain, P 3 mg/body + bort 0.35): 0 | Effect (improvement in symptoms) ([1]; Case 4, Left shoulder pain, P 3 mg/body + bort 0.35, after 3 weeks or longer): 3 | Effect (improvement in symptoms) ([1]; Case 5, Lumbar spinal stenosis 5 y, P 2 mg/body + bort 0.36, after 3 weeks or longer): 2 | Side effect ([1]; Case 5, Lumbar spinal stenosis, P 2 mg/body + bort 0.36): 0 | Side effect ([1]; Case 6, Right foot Lisfranc joint injury, P 1 mg/body + bv 50, bort 0.35, eta 25, maxa 10): 0 | Effect (improvement in symptoms) ([1]; Case 6, Right foot Lisfranc joint injury, P 1 mg/body + bv 50, bort 0.35, eta 25, maxa 10, after 3 weeks or longer): 3 | Effect (improvement in symptoms) ([1]; Case 7, Low back pain after spinal compression fracture 1.5 y, P 1 mg/body + bort 0.35, eta 25, maxa 10, reco 3200, after 3 weeks or longer): 2 | Side effect ([1]; Case 7, Low back pain after spinal compression fracture, P 1 mg/body + bort 0.35, eta 25, maxa 10, reco 3200): 0 | Effect (improvement in symptoms) ([1]; Case 8, Right knee RA 3.8 y, P 2 mg/body + bort 0.35, eta 25, reco 3200, after 3 weeks or longer): 2 | Side effect ([1]; Case 8, Right knee RA, P 2 mg/body + bort 0.35, eta 25, reco 3200): 0 | Effect (improvement in symptoms) ([1]; Case 9, Bilateral knee joint replacement postoperation 1.5 y, P 2 mg/body + eta 25, imp/cs 500, after 3 weeks or longer): 1 | Side effect ([1]; Case 9, Bilateral knee joint replacement postoperation, P 2 mg/body + eta 25, imp/cs 500): 0 | Side effect ([1]; Case 10, Piriformis syndrome, P 1 mg/body + bort 0.35, eta 25, reco 3200): 0 | Effect (improvement in symptoms) ([1]; Case 10, Piriformis syndrome, P 1 mg/body + bort 0.35, eta 25, reco 3200, after 3 weeks or longer): 2 | Side effect ([1]; Case 11, Left Achilles peritendinitis, P 1 mg/body): 0 | Effect (improvement in symptoms) ([1]; Case 11, Left Achilles peritendinitis, P 1 mg/body, no combined drug printed, after 3 weeks or longer): 3 | Side effect ([1]; Case 12, Bilateral gonarthrosis, P 2 mg/body): 0 | Effect (improvement in symptoms) ([1]; Case 12, Bilateral gonarthrosis, P 2 mg/body, no combined drug printed, after 3 weeks or longer): 2 | Side effect ([1]; Case 13, Left gonarthrosis, foot arthritis, P 2 mg/body): 0 | Effect (improvement in symptoms) ([1]; Case 13, Left gonarthrosis, foot arthritis, P 2 mg/body, no combined drug printed, after 3 weeks or longer): 1 | Side effect ([1]; Case 14, Right foot joint MFP syndrome, P 1 mg/body): 0 | Effect (improvement in symptoms) ([1]; Case 14, Right foot joint MFP syndrome, P 1 mg/body, no combined drug printed, after 3 weeks or longer): 2 | side effects considered to be caused by the therapy ([1]; all 14 cases, including minor side effects such as transient fever): No side effect; also recorded: without any side effects | cases with rating of 2 or more (improvement in symptom) ([1]; out of 14 cases, pembrolizumab 1 to 4 mg/body into target vessel, after 3 weeks or longer): 11 | chronic pain ([1]; selective arterial infusion to the site of pain, 1 to 2 mg/body, diluted at 1 to 2% in physiological saline): cancellation of chronic pain | abnormal microvascular density (microvasculature; Cases 7 and 8, 2 minutes after drug administration (FIGS. 5 and 6)): significant decrease in abnormal microvascular density
